Read-outs that look alike come from different tables or passages of the source.
Columns and labels:
isolated rabbit hearts [1] = assay: cardiokinetic effect on isolated heart (Langendorff): contractile force after anoxia, positive inotropic effect; settings: 10 minutes from interruption of anoxic period
How it was run: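 Rabbit hearts were perfused Langendorff-style with oxygenated Ringer at 38.2 °C. Anoxia was applied until contractile force dropped by 80%, then the hearts were reoxygenated with or without compound. Contractile force was expressed as a percentage 10 min after the anoxic period ended.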

isolated rat atrium = assay: antiarrhythmic effect, isolated rat atrium method of M. Libonati and G. Segre; settings: Rattus norvegicus
female rats = assay: antifatigue effect: rota-rod; format: in vivo, rat; settings: Rattus norvegicus, ip, 0.25 h
How it was run: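 Female rats dosed intraperitoneally in saline, with controls given saline alone. Every 15 min after treatment animals were placed on a 6 cm rod rotating at 16 r.p.m. Value is the percentage of animals staying on the rod for more than 180 s, per session.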

in vivo = settings: mouse, in vivo, iv
Text: The tolerance of acetyl-d,l-carnitine and of the other aforementioned acyl derivatives of the formula (I), as well as their salts were investigated by comparing the LD50 obtained by administering the compounds intravenously in mice with the LD50 obtained under the same experimental conditions by intravenous injection of d,l-carnitine.

isolated rabbit hearts [2] = assay: coronary vasodilator effect: coronary flow, isolated heart (Langendorff)
How it was run: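 Langendorff-perfused isolated rabbit hearts in oxygenated Ringer at 38.2° C; anoxia imposed until contractile force fell by 80%, then reoxygenated with or without test compound. Coronary flow, isometric contraction and ECG recorded by polygraph.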

[3] = read-out: Mean percent variation versus controls: excitability (-%)
[4] = read-out: Mean percent variation versus controls: frequency max (-%)
[5] = read-out: Mean percent variation versus controls: refractory period (+%)
[6] = read-out: Mean percent variation versus controls: rheobase (+%)

CCCCCCCCCCCCCCCCCC(=O)OC(CC(=O)[O-])C[N+](C)(C)C (racemic) [stearoyl-d,l-carnitine]
Contractile force, Mean ± S.E. (isolated rabbit hearts [1]; 1·10^-5 g/lt): 32.8 ± 3.01%
Contractile force, Mean ± S.E. (isolated rabbit hearts [1]; 1·10^-6 g/lt): 27.1 ± 3.18%
Contractile force, Mean ± S.E. (isolated rabbit hearts [1]; 5·10^-6 g/lt): 27.5 ± 4.09%
inhibition at 0.1 µg/mL (isolated rat atrium; 1·10^-4 g/lt, decrease, read-out: Mean percent variation versus controls: excitability (-%)): 12.3%
inhibition at 0.1 µg/mL (isolated rat atrium; 1·10^-4 g/lt, decrease, read-out: Mean percent variation versus controls: frequency max (-%)): 3.5%
activation at 0.1 µg/mL (isolated rat atrium; 1·10^-4 g/lt, increase, read-out: Mean percent variation versus controls: refractory period (+%)): 24.6%
activation at 0.1 µg/mL (isolated rat atrium; 1·10^-4 g/lt, increase, read-out: Mean percent variation versus controls: rheobase (+%)): 2.08%
inhibition at 0.01 µg/mL (isolated rat atrium; 1·10^-5 g/lt, decrease, read-out: Mean percent variation versus controls: excitability (-%)): 0%
inhibition at 0.01 µg/mL (isolated rat atrium; 1·10^-5 g/lt, decrease, read-out: Mean percent variation versus controls: frequency max (-%)): 1.92%
activation at 0.01 µg/mL (isolated rat atrium; 1·10^-5 g/lt, increase, read-out: Mean percent variation versus controls: refractory period (+%)): 16.2%
activation at 0.01 µg/mL (isolated rat atrium; 1·10^-5 g/lt, increase, read-out: Mean percent variation versus controls: rheobase (+%)): 3.84%
inhibition at 0.001 µg/mL (isolated rat atrium; 1·10^-6 g/lt, decrease, read-out: Mean percent variation versus controls: excitability (-%)): 0%
inhibition at 0.001 µg/mL (isolated rat atrium; 1·10^-6 g/lt, decrease, read-out: Mean percent variation versus controls: frequency max (-%)): 0%
activation at 0.001 µg/mL (isolated rat atrium; 1·10^-6 g/lt, increase, read-out: Mean percent variation versus controls: refractory period (+%)): 15.6%
activation at 0.001 µg/mL (isolated rat atrium; 1·10^-6 g/lt, increase, read-out: Mean percent variation versus controls: rheobase (+%)): 1.85%
responders at 300 mg/kg (female rats; 300 mg/kg i.p., session 1 (every 15 minutes), read-out: percentage of animals staying on the rota-rod more than 180 seconds): 0%
responders at 300 mg/kg (female rats; 300 mg/kg i.p., session 2 (every 15 minutes), read-out: percentage of animals staying on the rota-rod more than 180 seconds): 0%
responders at 300 mg/kg (female rats; 300 mg/kg i.p., session 3 (every 15 minutes), read-out: percentage of animals staying on the rota-rod more than 180 seconds): 0%
responders at 300 mg/kg (female rats; 300 mg/kg i.p., session 4 (every 15 minutes), read-out: percentage of animals staying on the rota-rod more than 180 seconds): 10%
responders at 300 mg/kg (female rats; 300 mg/kg i.p., session 5 (every 15 minutes), read-out: percentage of animals staying on the rota-rod more than 180 seconds): 10%
responders at 300 mg/kg (female rats; 300 mg/kg i.p., session 6 (every 15 minutes), read-out: percentage of animals staying on the rota-rod more than 180 seconds): 10%
responders at 400 mg/kg (female rats; 400 mg/kg i.p., session 1 (every 15 minutes), read-out: percentage of animals staying on the rota-rod more than 180 seconds): 0%
responders at 400 mg/kg (female rats; 400 mg/kg i.p., session 2 (every 15 minutes), read-out: percentage of animals staying on the rota-rod more than 180 seconds): 0%
responders at 400 mg/kg (female rats; 400 mg/kg i.p., session 3 (every 15 minutes), read-out: percentage of animals staying on the rota-rod more than 180 seconds): 0%
responders at 400 mg/kg (female rats; 400 mg/kg i.p., session 4 (every 15 minutes), read-out: percentage of animals staying on the rota-rod more than 180 seconds): 10%
responders at 400 mg/kg (female rats; 400 mg/kg i.p., session 5 (every 15 minutes), read-out: percentage of animals staying on the rota-rod more than 180 seconds): 20%
responders at 400 mg/kg (female rats; 400 mg/kg i.p., session 6 (every 15 minutes), * p < 0.05, read-out: percentage of animals staying on the rota-rod more than 180 seconds): 20%
responders at 600 mg/kg (female rats; 600 mg/kg i.p., session 1 (every 15 minutes), read-out: percentage of animals staying on the rota-rod more than 180 seconds): 0%
responders at 600 mg/kg (female rats; 600 mg/kg i.p., session 2 (every 15 minutes), read-out: percentage of animals staying on the rota-rod more than 180 seconds): 10%
responders at 600 mg/kg (female rats; 600 mg/kg i.p., session 3 (every 15 minutes), read-out: percentage of animals staying on the rota-rod more than 180 seconds): 10%
responders at 600 mg/kg (female rats; 600 mg/kg i.p., session 4 (every 15 minutes), read-out: percentage of animals staying on the rota-rod more than 180 seconds): 20%
responders at 600 mg/kg (female rats; 600 mg/kg i.p., session 5 (every 15 minutes), read-out: percentage of animals staying on the rota-rod more than 180 seconds): 20%
responders at 600 mg/kg (female rats; 600 mg/kg i.p., session 6 (every 15 minutes), * p < 0.05, read-out: percentage of animals staying on the rota-rod more than 180 seconds): 20%
LD50 (in vivo): ~745 mg/kg
Coronary flow, Mean ± S.E. (isolated rabbit hearts [2]; 1·10^-5 g/lt): 81.05 ± 6.27%
Coronary flow, Mean ± S.E. (isolated rabbit hearts [2]; 1·10^-6 g/lt): 80.21 ± 8.78%
Coronary flow, Mean ± S.E. (isolated rabbit hearts [2]; 5·10^-6 g/lt): 77.30 ± 11.8%

CCC(=O)OC(CC(=O)[O-])C[N+](C)(C)C (racemic) [propionyl-d,l-carnitine]
Contractile force, Mean ± S.E. (isolated rabbit hearts [1]; 1·10^-5 g/lt): 60.1 ± 3.12%
Contractile force, Mean ± S.E. (isolated rabbit hearts [1]; 1·10^-6 g/lt): 32.0 ± 5.06%
Contractile force, Mean ± S.E. (isolated rabbit hearts [1]; 5·10^-6 g/lt): 38.4 ± 4.86%
inhibition at 0.001 µg/mL (isolated rat atrium; [3]): 2.24%
inhibition at 0.01 µg/mL (isolated rat atrium; [3]): 28.4%
inhibition at 0.1 µg/mL (isolated rat atrium; [3]): 14.7%
inhibition at 0.001 µg/mL (isolated rat atrium; [4]): 10.7%
inhibition at 0.01 µg/mL (isolated rat atrium; [4]): 11.4%
inhibition at 0.1 µg/mL (isolated rat atrium; [4]): 7.65%
activation at 0.001 µg/mL (isolated rat atrium; [5]): 8.16%
activation at 0.01 µg/mL (isolated rat atrium; [5]): 14%
activation at 0.1 µg/mL (isolated rat atrium; [5]): 19.3%
activation at 0.001 µg/mL (isolated rat atrium; [6]): 3.57%
activation at 0.01 µg/mL (isolated rat atrium; [6]): 51.3%
activation at 0.1 µg/mL (isolated rat atrium; [6]): 52.1%
responders at 300 mg/kg (female rats; read-out: percentage of animals staying on the rota-rod more than 180 seconds, 300 mg/kg i.p., session 1 (every 15 minutes)): 0%
responders at 300 mg/kg (female rats; read-out: percentage of animals staying on the rota-rod more than 180 seconds, 300 mg/kg i.p., session 2 (every 15 minutes)): 0%
responders at 300 mg/kg (female rats; read-out: percentage of animals staying on the rota-rod more than 180 seconds, 300 mg/kg i.p., session 3 (every 15 minutes)): 0%
responders at 300 mg/kg (female rats; read-out: percentage of animals staying on the rota-rod more than 180 seconds, 300 mg/kg i.p., session 4 (every 15 minutes)): 10%
responders at 300 mg/kg (female rats; read-out: percentage of animals staying on the rota-rod more than 180 seconds, 300 mg/kg i.p., session 5 (every 15 minutes)): 20%
responders at 300 mg/kg (female rats; read-out: percentage of animals staying on the rota-rod more than 180 seconds, 300 mg/kg i.p., session 6 (every 15 minutes)): 40%
responders at 400 mg/kg (female rats; read-out: percentage of animals staying on the rota-rod more than 180 seconds, 400 mg/kg i.p., session 1 (every 15 minutes)): 0%
responders at 400 mg/kg (female rats; read-out: percentage of animals staying on the rota-rod more than 180 seconds, 400 mg/kg i.p., session 2 (every 15 minutes)): 0%
responders at 400 mg/kg (female rats; read-out: percentage of animals staying on the rota-rod more than 180 seconds, 400 mg/kg i.p., session 3 (every 15 minutes)): 10%
responders at 400 mg/kg (female rats; read-out: percentage of animals staying on the rota-rod more than 180 seconds, 400 mg/kg i.p., session 4 (every 15 minutes)): 20%
responders at 400 mg/kg (female rats; read-out: percentage of animals staying on the rota-rod more than 180 seconds, 400 mg/kg i.p., session 5 (every 15 minutes)): 20%
responders at 400 mg/kg (female rats; read-out: percentage of animals staying on the rota-rod more than 180 seconds, 400 mg/kg i.p., session 6 (every 15 minutes), * p < 0.05): 40%
responders at 600 mg/kg (female rats; read-out: percentage of animals staying on the rota-rod more than 180 seconds, 600 mg/kg i.p., session 1 (every 15 minutes)): 0%
responders at 600 mg/kg (female rats; read-out: percentage of animals staying on the rota-rod more than 180 seconds, 600 mg/kg i.p., session 2 (every 15 minutes)): 10%
responders at 600 mg/kg (female rats; read-out: percentage of animals staying on the rota-rod more than 180 seconds, 600 mg/kg i.p., session 3 (every 15 minutes)): 20%
responders at 600 mg/kg (female rats; read-out: percentage of animals staying on the rota-rod more than 180 seconds, 600 mg/kg i.p., session 4 (every 15 minutes)): 30%
responders at 600 mg/kg (female rats; read-out: percentage of animals staying on the rota-rod more than 180 seconds, 600 mg/kg i.p., session 5 (every 15 minutes)): 40%
responders at 600 mg/kg (female rats; read-out: percentage of animals staying on the rota-rod more than 180 seconds, 600 mg/kg i.p., session 6 (every 15 minutes), * p < 0.05): 40%
Coronary flow, Mean ± S.E. (isolated rabbit hearts [2]; 1·10^-5 g/lt): 89.27 ± 7.24%
Coronary flow, Mean ± S.E. (isolated rabbit hearts [2]; 1·10^-6 g/lt): 80.61 ± 7.56%
Coronary flow, Mean ± S.E. (isolated rabbit hearts [2]; 5·10^-6 g/lt): 78.76 ± 11.03%
